Measured values as given in ChEMBL document CHEMBL1131087, “New cyclooxygenase-2/5-lipoxygenase inhibitors. 3. 7-tert-butyl-2, 3-dihydro-3,3-dimethylbenzofuran derivatives as gastrointestinal safe antiinflammatory and analgesic agents: variations at the 5 position” (J Med Chem, 1998).
The source made the active and inactive calls. The calls are words filed in the database; no cut-off is given here.

Columns and labels:
[1] = tested on: Rattus norvegicus; experiment: Inhibition of paw swelling relative to the tebufelone in rat. Value was reported as Carrageenan paw edema index; format: functional
[2] = tested on: Rattus norvegicus; experiment: Comparative activity versus Dihydrodimethylbenzofurans in the CPE (Carrageenan paw edema) assay; (-) indicates the compound is inactive; format: functional, organism-based
[3] = biological target: T1, Polyunsaturated fatty acid 5-lipoxygenase (Homo sapiens, UniProt P09917); experiment: Inhibition of 5-Lipoxygenase (5-LOX)
T1 sequence (P09917 whole entry): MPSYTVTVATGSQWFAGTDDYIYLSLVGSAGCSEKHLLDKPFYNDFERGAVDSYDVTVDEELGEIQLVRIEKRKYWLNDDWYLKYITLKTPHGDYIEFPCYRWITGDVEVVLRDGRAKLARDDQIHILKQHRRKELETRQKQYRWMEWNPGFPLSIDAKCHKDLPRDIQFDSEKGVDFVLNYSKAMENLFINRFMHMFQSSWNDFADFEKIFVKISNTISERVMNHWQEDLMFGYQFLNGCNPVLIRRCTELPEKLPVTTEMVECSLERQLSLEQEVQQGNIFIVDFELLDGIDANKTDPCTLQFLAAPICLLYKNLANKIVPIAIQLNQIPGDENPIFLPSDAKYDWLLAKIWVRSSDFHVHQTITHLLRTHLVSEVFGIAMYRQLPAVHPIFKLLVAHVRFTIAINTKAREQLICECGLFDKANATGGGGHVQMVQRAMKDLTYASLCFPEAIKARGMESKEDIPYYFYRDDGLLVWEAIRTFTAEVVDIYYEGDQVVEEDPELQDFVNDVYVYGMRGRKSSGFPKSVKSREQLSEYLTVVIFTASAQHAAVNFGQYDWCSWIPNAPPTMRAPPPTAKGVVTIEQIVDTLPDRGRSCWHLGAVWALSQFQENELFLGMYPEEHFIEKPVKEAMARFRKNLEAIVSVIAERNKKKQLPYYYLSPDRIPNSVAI

[4] = biological target: T2, Prostaglandin G/H synthase 2 (Homo sapiens, UniProt P35354)
T2 sequence (P35354 whole entry): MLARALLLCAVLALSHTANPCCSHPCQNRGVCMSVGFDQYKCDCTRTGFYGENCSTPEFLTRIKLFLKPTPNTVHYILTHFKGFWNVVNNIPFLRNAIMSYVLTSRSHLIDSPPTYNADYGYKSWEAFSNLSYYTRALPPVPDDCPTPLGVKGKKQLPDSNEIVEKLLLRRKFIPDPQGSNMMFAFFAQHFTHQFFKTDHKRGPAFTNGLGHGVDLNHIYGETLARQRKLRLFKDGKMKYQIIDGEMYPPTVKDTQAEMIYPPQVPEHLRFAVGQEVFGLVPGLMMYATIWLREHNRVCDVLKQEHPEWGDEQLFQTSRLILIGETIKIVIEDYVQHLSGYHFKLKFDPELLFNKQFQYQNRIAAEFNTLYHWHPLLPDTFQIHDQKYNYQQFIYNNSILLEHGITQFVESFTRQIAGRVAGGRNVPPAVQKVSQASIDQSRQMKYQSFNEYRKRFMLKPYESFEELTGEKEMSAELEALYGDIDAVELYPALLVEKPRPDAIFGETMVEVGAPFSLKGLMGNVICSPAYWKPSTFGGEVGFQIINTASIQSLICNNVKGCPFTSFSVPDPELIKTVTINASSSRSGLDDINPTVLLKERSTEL
Description: Inhibitory activity against prostaglandin G/H synthase 2 (COX-2)

[5] = species: Rattus norvegicus; experiment: Analgesic activity in phenylquinone-induced abdominal constriction assay (PAC); format: functional, Abdomen; parameters: concentration or dose not given beside the values
[6] = biological target: Prostaglandin G/H synthase 1 (Homo sapiens, UniProt P23219)
Sequence of Prostaglandin G/H synthase 1 (P23219 whole entry): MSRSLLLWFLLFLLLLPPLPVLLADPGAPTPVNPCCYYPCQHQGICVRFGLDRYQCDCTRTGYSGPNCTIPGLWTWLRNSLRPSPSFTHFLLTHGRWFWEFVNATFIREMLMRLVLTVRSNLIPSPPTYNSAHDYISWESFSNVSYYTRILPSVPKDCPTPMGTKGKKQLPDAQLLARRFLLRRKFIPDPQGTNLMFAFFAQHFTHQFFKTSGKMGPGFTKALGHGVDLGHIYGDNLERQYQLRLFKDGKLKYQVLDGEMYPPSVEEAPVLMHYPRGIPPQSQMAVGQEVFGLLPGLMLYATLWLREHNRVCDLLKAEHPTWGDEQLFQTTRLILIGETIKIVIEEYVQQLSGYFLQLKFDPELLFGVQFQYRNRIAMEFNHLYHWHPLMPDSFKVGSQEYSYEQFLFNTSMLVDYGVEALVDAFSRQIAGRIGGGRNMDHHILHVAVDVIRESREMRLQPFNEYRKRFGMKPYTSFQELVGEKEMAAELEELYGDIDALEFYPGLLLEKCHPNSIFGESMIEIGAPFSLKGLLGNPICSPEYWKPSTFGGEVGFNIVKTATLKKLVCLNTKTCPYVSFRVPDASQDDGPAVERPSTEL
Description: Inhibitory activity against prostaglandin G/H synthase 1 (COX-1)

[7] = species: Rattus norvegicus; experiment: Compound was tested for its analgesic activity in phenylquinone-induced abdominal constriction assay(PAC); format: functional; settings: Abdomen
[8] = tested on: Rattus norvegicus; experiment: Analgesic activity (50 mg/kg, sc)in phenylquinone-induced abdominal constriction assay(PAC); format: functional, Abdomen

| SMILES | CPE index [1] | IC50 [4] [nM] | Inhibition [5] [%] | IC50 [6] [nM] | also measured |
| --- | --- | --- | --- | --- | --- |
| CC(C)(C)c1cc(C(=O)NC2CCCC2)cc2c1OCC2(C)C | 0 | – | – | – | – |
| CC(C)(C)c1cc(C(=O)O)cc(C(C)(C)C)c1O | – | – | – | – | Activity [2]: inactive |
| CC(C)(C)c1cc(C(=O)c2cccs2)cc2c1OCC2(C)C | 0.58 | 38 | 34 | 45 | IC50 [3]: 10000 nM |
| Cc1cc(/C=C\c2cc(C(C)(C)C)c3c(c2)C(C)(C)CO3)on1 | 0 | – | – | – | Activity [2]: inactive |
| CN(C)CCNC(=O)c1cc(C(C)(C)C)c2c(c1)C(C)(C)CO2 | 0 | – | – | – | – |
| CC(C)(C)c1cc(C(=O)NCC(O)CO)cc2c1OCC2(C)C (stereo not drawn) | 0.51 | – | – | – | – |
| CC(C)(C)c1cc(C(=O)O)cc2c1OCC2(C)C | 0.47 | – | – | – | – |
| CC(C)(C)c1cc(C(=O)Nc2nccs2)cc2c1OCC2(C)C | 0.49 | – | – | – | – |
| Cc1cc(/C=C\c2cc(C(C)(C)C)c3c(c2)C(C)(C)CO3)[nH]n1 | 0.56 | – | 35 | – | – |
| Cn1cccc1C(=O)c1cc(C(C)(C)C)c2c(c1)C(C)(C)CO2 | 1.24 | 45 | 57 | 35 | – |
| CC(C)(C)c1cc(-c2csc(N)n2)cc2c1OCC2(C)C | 0.26 | – | – | – | – |
| CC(C)(C)c1cc(C(=O)c2nccs2)cc2c1OCC2(C)C | 0.75 | – | 28 | – | – |
| CC(=O)Nc1cc(C(C)(C)C)c(O)c(C(C)(C)C)c1 | – | – | – | – | Activity [2]: inactive |
| CCCNC(=O)Nc1cc(C(C)(C)C)c2c(c1)C(C)(C)CO2 | 0.41 | – | – | – | – |
| CC(=O)Nc1cc(C(C)(C)C)c2c(c1)C(C)(C)CO2 | 0.66 | 3500 | 22 | 3500 | – |
| CCCN(C)C(=O)c1cc(C(C)(C)C)c2c(c1)C(C)(C)CO2 | 0.91 | – | 36 | – | – |
| CC(C)(C)c1cc(-c2ccco2)cc2c1OCC2(C)C | 0.93 | – | 7 | – | – |
| CC(C)(C)c1cc(C(=O)N2CCCC2)cc2c1OCC2(C)C | 0.78 | – | – | – | – |
| CC(C)(C)c1cc(C(=O)N2CCCCC2)cc2c1OCC2(C)C | 0.52 | – | 34 | – | – |
| CC(C)(C)c1cc(C(=O)NC2CC2)cc2c1OCC2(C)C | 0.68 | 550 | 20 | 290 | IC50 [3]: > 50000 nM |
| CC(C)(C)c1cc(C(=O)c2ccco2)cc2c1OCC2(C)C | 0.7 | – | 24 | – | – |

| SMILES | CPE index [1] | IC50 [4] [nM] | Inhibition [5] [%] | IC50 [6] [nM] | also measured |
| --- | --- | --- | --- | --- | --- |
| CCCN(C(=O)c1cc(C(C)(C)C)c2c(c1)C(C)(C)CO2)C1CC1 | 1.41 | 4000 | – | 4500 | – |
| CC(C)(C)c1cc(-c2cn3cc[s+]([O-])c3n2)cc2c1OCC2(C)C (stereo not drawn) | 0.96 | – | – | – | – |
| CC(C)(C)c1cc(C(=O)Nc2ccccc2)cc2c1OCC2(C)C | 0.01 | – | – | – | – |
| CC(C)(C)c1cc(C(=N)N2CCCC2)cc2c1OCC2(C)C | 0.8 | > 100000 | 0 | > 100000 | IC50 [3]: 30000 nM |
| CC(C)(C)c1cc(Nc2ccccc2C(=O)O)cc2c1OCC2(C)C | 0.78 | 4000 | – | 2500 | – |
| Cc1nc(-c2cc(C(C)(C)C)c3c(c2)C(C)(C)CO3)no1 | 0.83 | – | – | – | – |
| CC(C)(C)c1cc(-c2csc(N=C(N)N)n2)cc2c1OCC2(C)C | 1.38 | 9000 | 77 | 15000 | – |
| CC(C)(C)c1cc(/C=C2/SC(N)=NC2=O)cc2c1OCC2(C)C | 0.07 | 3000 | – | 5000 | Activity [2]: inactive |
| CCN(C(=O)c1cc(C(C)(C)C)c2c(c1)C(C)(C)CO2)C1CC1 | 1.14 | – | – | – | – |
| CCCCCNC(=O)c1cc(C(C)(C)C)c2c(c1)C(C)(C)CO2 | 0.16 | 250 | – | 2000 | – |
| CC1(C)CC(c2cc(C(C)(C)C)c3c(c2)C(C)(C)CO3)=NO1 | 0.56 | 200 | 80 | 70 | – |
| Cc1nc(-c2cc(C(C)(C)C)c(O)c(C(C)(C)C)c2)no1 | – | – | – | – | Activity [2]: inactive |
| CC(C)(C)c1cc(-c2cscn2)cc2c1OCC2(C)C | 1.53 | – | 59 | – | – |
| CC(C)(C)c1cc(C(=O)N2CCSCC2)cc2c1OCC2(C)C | 0.71 | – | 29 | – | – |
| CC(C)(C)c1cc(C(=O)NCC2CC2)cc2c1OCC2(C)C | 0.44 | – | – | – | – |
| CC(C)NC(=O)c1cc(C(C)(C)C)c2c(c1)C(C)(C)CO2 | 1.09 | – | 43 | – | – |
| CC(C)(C)c1cc(C(=O)c2ccoc2)cc2c1OCC2(C)C | 0.68 | – | 3 | – | – |
| CN(C(=O)c1cc(C(C)(C)C)c2c(c1)C(C)(C)CO2)C1CC1 | 1.82 | 1000 | – | 5000 | IC50 [3]: 12000 nM; ED50 [7]: 10 mg/kg |
| CC(C)(C)c1cc(/C=C\c2cccs2)cc2c1OCC2(C)C | 0.77 | 35 | 13 | 20 | IC50 [3]: 6000 nM |
| CCN(C)C(=O)c1cc(C(C)(C)C)c2c(c1)C(C)(C)CO2 | 0.86 | 4500 | – | 2500 | IC50 [3]: 22000 nM; ED50 [7]: 19 mg/kg |
| CC(C)(C)c1cc(-c2cccs2)cc2c1OCC2(C)C | 0.92 | 70 | 52 | 200 | IC50 [3]: 9000 nM |

| SMILES | CPE index [1] | IC50 [4] [nM] | Inhibition [5] [%] | IC50 [6] [nM] | also measured |
| --- | --- | --- | --- | --- | --- |
| CC(C)(C)c1cc(/C=C(/C(=O)O)c2cccs2)cc2c1OCC2(C)C | 0.76 | – | 19 | – | – |
| CCNC(=O)Nc1cc(C(C)(C)C)c2c(c1)C(C)(C)CO2 | 0.73 | – | 36 | – | – |
| CC(C)(C)c1cc(C(=O)NC2=NCCS2)cc2c1OCC2(C)C | 0.81 | – | 65 | – | – |
| CC(C)(C)c1cc(/C=C\c2ccccn2)cc2c1OCC2(C)C | 0.5 | – | – | – | Activity [2]: inactive |
| CC(C)(C)c1cc(/C=C\c2cccnc2)cc2c1OCC2(C)C | 0.78 | – | 45 | – | – |
| CC(C)(C)c1cc(-c2cocn2)cc2c1OCC2(C)C | 0.19 | – | – | – | – |
| COC(=O)c1cc(C(C)(C)C)c2c(c1)C(C)(C)CO2 | 0.16 | – | – | – | – |
| CCCCNC(=O)c1cc(C(C)(C)C)c2c(c1)C(C)(C)CO2 | 0.46 | 220 | – | 2500 | – |
| CC(C)(C)c1cc(C(N)=O)cc(C(C)(C)C)c1O | – | – | – | – | Activity [2]: inactive |
| COCCNC(=O)c1cc(C(C)(C)C)c2c(c1)C(C)(C)CO2 | 1.47 | 30 | 84 | 1000 | IC50 [3]: 50000 nM |
| CCNC(=O)c1cc(C(C)(C)C)c2c(c1)C(C)(C)CO2 | 0.88 | 6000 | – | 20000 | Inhibition [8]: 56% |
| CN(C)C(=N)c1cc(C(C)(C)C)c2c(c1)C(C)(C)CO2 | 0.47 | – | – | – | – |
| CC(C)(C)c1cc(C(=O)c2ccsc2)cc2c1OCC2(C)C | 0.62 | – | 40 | – | – |
| CC(C)(C)c1cc(C(=O)NCCC2CC2)cc2c1OCC2(C)C | 0.06 | – | – | – | – |
| CC(C)(C)c1cc(C(=O)NCCO)cc2c1OCC2(C)C | 0.33 | – | – | – | – |
| CC(C)(C)c1cc(C=C2CCOC2=O)cc2c1OCC2(C)C | 0.93 | 3.5 | – | 45 | IC50 [3]: 4000 nM |
| CC(C)(C)c1cc(-c2cn3c(n2)S(=O)(=O)C=C3)cc(C(C)(C)C)c1O | – | – | – | – | Activity [2]: inactive |
| CC(C)(C)c1cc(-c2cn3ccsc3n2)cc2c1OCC2(C)C | 0.81 | 15 | 68 | 75 | IC50 [3]: 10000 nM |
| CCCNC(=O)c1cc(C(C)(C)C)c2c(c1)C(C)(C)CO2 | 1.17 | 950 | 63 | 550 | IC50 [3]: > 50000 nM |
| CC(C)(C)c1cc(C(=O)NC2CCC2)cc2c1OCC2(C)C | 0 | – | – | – | – |
